pEC50: −log10 of the molar value.

Sequence of Human LPA1 (Q92633 whole entry, the tested form may be a part): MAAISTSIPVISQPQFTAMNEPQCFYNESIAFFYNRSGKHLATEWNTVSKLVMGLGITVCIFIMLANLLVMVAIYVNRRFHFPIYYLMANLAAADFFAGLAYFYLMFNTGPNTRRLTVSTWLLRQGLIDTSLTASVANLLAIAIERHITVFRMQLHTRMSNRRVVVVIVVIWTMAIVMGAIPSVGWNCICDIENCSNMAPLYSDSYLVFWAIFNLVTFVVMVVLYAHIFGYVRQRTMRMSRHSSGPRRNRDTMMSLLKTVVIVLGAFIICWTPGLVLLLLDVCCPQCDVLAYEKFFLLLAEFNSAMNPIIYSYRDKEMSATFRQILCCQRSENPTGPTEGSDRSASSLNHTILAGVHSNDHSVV

This assay has as its target Human LPA1 (Homo sapiens, UniProt Q92633). As to the kind of experiment: Beta-Arrestin based assay for human LPA1R antagonists (PathHunter). The class given is cell-based. Also noted: host or cells: CHO. The note with it: CHO cells stably expressing ProLink tagged human LPA1R; agonist LPA 0.5 micromolar. The procedure: Beta-Arrestin Based Assays for Human LPA1R Antagonists and Agonists
A CHO cell line stably expressing the ProLink™ tagged human LPA1R was obtained from DiscoverX Inc, Fremont, Calif. In this system, β-Arrestin was fused to an N-terminal deletion mutant of β-galactosidase (termed the enzyme acceptor or EA), the human LPA1R was fused to a smaller (42 amino acids) weakly complementing fragment termed ProLink™. […] Cell handling and assays were performed according to protocols specified in the PathHunter® assays kits (DiscoverX, Fremont, Calif.). Assays were performed in quadruplicate in white 384 well plates. End point luminescence data were plotted and fit to a 4 parameter logistic function to obtain IC50 values. For antagonist assays, an […] concentration of agonist (LPA) equal to 0.5 micromolar was used.
`Cc1cc(-c2ccc(-c3snc(C)c3NC(=O)O[C@H](C)c3ccccc3Cl)cc2)ccc1CC(=O)O` [Compound 118]: the negative-log EC50 (pEC50) is 6.30 to 7.30.

On to `Cc1nsc(-c2ccc(-c3ccc(C4(C(=O)O)CC4)cc3)cc2F)c1NC(=O)O[C@H](C)c1ccccc1Cl` [Compound 119], for which the pEC50 is > 7.30.

Consider `Cc1nsc(-c2cc(Cl)c(-c3ccc(C4(C(=O)O)CC4)cc3)cc2F)c1NC(=O)O[C@H](C)c1ccccc1Cl` [Compound 120], for which the negative-log EC50 (pEC50) was > 7.30.

As for `Cc1cc(-c2snc(C)c2NC(=O)O[C@H](C)c2ccccc2Cl)c(F)cc1-c1ccc(C2(C(=O)O)CC2)cc1` [Compound 121], the pEC50 was > 7.30.

Take `Cc1cc(-c2snc(C)c2NC(=O)O[C@H](C)c2ccccc2Cl)c(Cl)cc1-c1ccc(C2(C(=O)O)CC2)cc1` [Compound 122]: the negative logarithm of the EC50 (pEC50) is > 7.30.

Turning to `Cc1cc(-c2snc(C)c2NC(=O)O[C@H](C)c2ccccc2Cl)c(C)cc1-c1ccc(C2(C(=O)O)CC2)cc1` [Compound 123], the pEC50 is 6.30 to 7.30.

As for `Cc1cc(-c2ccc(C3(C(=O)O)CC3)cc2)c(F)cc1-c1snc(C)c1NC(=O)O[C@H](C)c1ccccc1Cl` [Compound 124], the pEC50 was > 7.30.

In turn, `Cc1nsc(-c2ccc(-c3ccc(C4(C(=O)O)CCCC4)cc3)cc2)c1NC(=O)O[C@H](C)c1ccccc1` [Compound 125] had a negative-log EC50 (pEC50) of 6.30 to 7.30.

For the compound `Cc1nsc(-c2ccc(-c3ccc(C4(C(=O)O)CCCCC4)cc3)cc2)c1NC(=O)O[C@H](C)c1ccccc1` [Compound 126], the pEC50 is 6.30 to 7.30.

The compound `Cc1nsc(-c2ccc(-c3ccc(C4(C(=O)O)CCC4)cc3)cc2)c1NC(=O)O[C@H](C)c1ccccc1` [Compound 127] had a pEC50 of 6.30 to 7.30.

`Cc1noc(C#Cc2ccc3cc(CC(=O)O)ccc3c2)c1NC(=O)O[C@H](C)c1ccccc1` [Compound 128] showed a negative logarithm of the EC50 (pEC50) of 6.30 to 7.30.

Compound `Cc1noc(C#Cc2ccc3cc(CC(=O)O)ccc3c2)c1NC(=O)O[C@H](C)c1ccccc1Cl` [Compound 129] showed a pEC50 of 6.30 to 7.30.

Take `Cc1noc(C#Cc2ccc3cc(C4(C(=O)O)CC4)ccc3c2)c1NC(=O)O[C@H](C)c1ccccc1` [Compound 130]: the pEC50 was > 7.30.

`Cc1noc(C#Cc2ccc3cc(C4(C(=O)O)CC4)ccc3c2)c1NC(=O)O[C@H](C)c1ccccc1Cl` [Compound 131]: the negative-log EC50 (pEC50) was > 7.30.

On to `Cc1noc(-c2ccc(-c3ccc(N4CC[C@H](C(=O)O)C4)cc3)cc2)c1NC(=O)O[C@H](C)c1ccccc1` [Compound 132], for which the negative-log EC50 (pEC50) is 6.30 to 7.30.

Consider `Cc1noc(-c2ccc(-c3ccc(N4CC[C@@H](C(=O)O)C4)cc3)cc2)c1NC(=O)O[C@H](C)c1ccccc1` [Compound 133], for which the negative logarithm of the EC50 (pEC50) is < 6.30.

With `Cc1noc(-c2ccc(-c3ccc(N4CC[C@@H](C(=O)O)C4)cc3)cc2)c1NC(=O)O[C@H](C)c1ccccc1Cl` [Compound 134], the pEC50 was 6.30 to 7.30.

For the compound `Cc1noc(-c2ccc(-c3ccc(N4CC[C@H](C(=O)O)C4)cc3)cc2)c1NC(=O)O[C@H](C)c1ccccc1Cl` [Compound 135], the pEC50 is 6.30 to 7.30.

With `Cc1noc(-c2ccc(-c3ccc(N4CCC[C@@H](C(=O)O)C4)cc3)cc2)c1NC(=O)O[C@H](C)c1ccccc1` [Compound 136], the pEC50 was 6.30 to 7.30.

For the compound `Cc1noc(-c2ccc(-c3ccc(N4CCC[C@H](C(=O)O)C4)cc3)cc2)c1NC(=O)O[C@H](C)c1ccccc1` [Compound 137], the negative logarithm of the EC50 (pEC50) was 6.30 to 7.30.

As for `Cc1noc(-c2ccc(-c3ccc(N4CCC[C@@H](C(=O)O)C4)cc3)cc2)c1NC(=O)O[C@H](C)c1ccccc1Cl` [Compound 138], the negative-log EC50 (pEC50) was 6.30 to 7.30.

On to `Cc1noc(-c2ccc(-c3ccc(N4CCC[C@H](C(=O)O)C4)cc3)cc2)c1NC(=O)O[C@H](C)c1ccccc1Cl` [Compound 139], for which the pEC50 is 6.30 to 7.30.

`Cc1noc(-c2ccc3cc(C#CC4(C(=O)O)CC4)ccc3c2)c1NC(=O)O[C@H](C)c1ccccc1Cl` [Compound 141]: the pEC50 was > 7.30.

With `Cc1noc(-c2ccc3cc(C#CC4(C(=O)O)CC4)ccc3c2)c1NC(=O)OCc1ccccc1` [Compound 142], the pEC50 was > 7.30.

Compound `C[C@@H](OC(=O)Nc1ncoc1-c1ccc(-c2ccc(C3(C(=O)O)CC3)cc2)cc1)c1ccccc1` [Compound 143] gave a negative logarithm of the EC50 (pEC50) of 6.30 to 7.30.

Take `C[C@@H](OC(=O)Nc1ncoc1-c1ccc(-c2ccc(C3(C(=O)O)CC3)cc2)cc1)c1ccccc1Cl` [Compound 144]: the pEC50 was > 7.30.

In the case of `O=C(Nc1ncoc1-c1ccc(-c2ccc(C3(C(=O)O)CC3)cc2)cc1)OCc1ccccc1` [Compound 145], the negative logarithm of the EC50 (pEC50) is 6.30 to 7.30.

Consider `O=C(Nc1ocnc1-c1ccc(-c2ccc(C3(C(=O)O)CC3)cc2)cc1)OCc1ccccc1` [Compound 148], for which the negative logarithm of the EC50 (pEC50) was < 6.30.

As for `C[C@@H](OC(=O)Nc1c(-c2ccc(-c3ccc(C4(C(=O)O)CC4)cc3)cc2)oc2cnccc12)c1ccccc1` [Compound 150], the pEC50 was > 7.30.

On to `O=C(Nc1c(-c2ccc(-c3ccc(C4(C(=O)O)CC4)cc3)cc2)oc2cnccc12)OCc1ccccc1` [Compound 151], for which the pEC50 was 6.30 to 7.30.

On to `Cc1nc(-c2ccc(-c3ccc(C4(C(=O)O)CC4)cc3)cc2)c(NC(=O)O[C@H](C)c2ccccc2)o1` [Compound 154], for which the pEC50 was 6.30 to 7.30.

`Cc1nc(-c2ccc(-c3ccc(C4(C(=O)O)CC4)cc3)cc2)c(NC(=O)O[C@H](C)c2ccccc2Cl)o1` [Compound 155] gave a pEC50 of 6.30 to 7.30.

Regarding `Cc1nc(-c2ccc(-c3ccc(C4(C(=O)O)CC4)cc3)cc2)c(NC(=O)OCc2ccccc2)o1` [Compound 156], the pEC50 was < 6.30.

Turning to `Cc1nnn(-c2ccc(-c3ccc(C4(C(=O)O)CC4)cc3)cc2)c1NC(=O)OCc1ccccc1` [Compound 157], the pEC50 was 6.30 to 7.30.

Consider `C[C@@H](OC(=O)Nc1nncn1-c1ccc(-c2ccc(C3(C(=O)O)CC3)cc2)cc1)c1ccccc1` [Compound 158], for which the pEC50 is < 6.30.

Consider `C[C@@H](OC(=O)Nc1nncn1-c1ccc(-c2ccc(C3(C(=O)O)CC3)cc2)cc1)c1ccccc1Cl` [Compound 159], for which the negative logarithm of the EC50 (pEC50) is < 6.30.

`O=C(Nc1nncn1-c1ccc(-c2ccc(C3(C(=O)O)CC3)cc2)cc1)OCc1ccccc1` [Compound 160]: the pEC50 was < 6.30.

For `Cc1nc(NC(=O)O[C@H](C)c2ccccc2)n(-c2ccc(-c3ccc(C4(C(=O)O)CC4)cc3)cc2)n1` [Compound 161], the pEC50 is < 6.30.

Consider `Cc1nc(NC(=O)O[C@H](C)c2ccccc2Cl)n(-c2ccc(-c3ccc(C4(C(=O)O)CC4)cc3)cc2)n1` [Compound 162], for which the negative logarithm of the EC50 (pEC50) is < 6.30.

Consider `C[C@@H](OC(=O)Nc1ccn(-c2ccc(-c3ccc(C4(C(=O)O)CC4)cc3)cc2)n1)c1ccccc1` [Compound 163], for which the pEC50 is < 6.30.

Compound `C[C@@H](OC(=O)Nc1cncn1-c1ccc(-c2ccc(C3(C(=O)O)CC3)cc2)cc1)c1ccccc1Cl` [Compound 164] showed a pEC50 of 6.30 to 7.30.

For `C[C@@H](OC(=O)Nc1cncn1-c1ccc(-c2ccc(C3(C(=O)O)CC3)cc2)cc1)c1ccccc1` [Compound 165], the negative logarithm of the EC50 (pEC50) was 6.30 to 7.30.

`O=C(Nc1cncn1-c1ccc(-c2ccc(C3(C(=O)O)CC3)cc2)cc1)OCc1ccccc1` [Compound 166]: the pEC50 is < 6.30.

With `Cn1cnc(-c2ccc(-c3ccc(C4(C(=O)O)CC4)cc3)cc2)c1NC(=O)OCc1ccccc1` [Compound 167], the negative logarithm of the EC50 (pEC50) was < 6.30.

For the compound `C[C@@H](OC(=O)Nc1c(-c2ccc(-c3ccc(C4(C(=O)O)CC4)cc3)cc2)ncn1C)c1ccccc1Cl` [Compound 168], the pEC50 is > 7.30.

Consider `C[C@@H](OC(=O)Nc1c(-c2ccc(-c3ccc(C4(C(=O)O)CC4)cc3)cc2)ncn1C)c1ccccc1` [Compound 169], for which the negative logarithm of the EC50 (pEC50) was 6.30 to 7.30.

Take `Cn1ncc(-c2ccc(-c3ccc(C4(C(=O)O)CC4)cc3)cc2)c1NC(=O)OCc1ccccc1` [Compound 172]: the pEC50 is > 7.30.

As for `O=C(Nc1snnc1-c1ccc(-c2ccc(C3(C(=O)O)CC3)cc2)cc1)OCc1ccccc1` [Compound 173], the negative logarithm of the EC50 (pEC50) is < 6.30.

In turn, `C[C@@H](OC(=O)Nc1snnc1-c1ccc(-c2ccc(C3(C(=O)O)CC3)cc2)cc1)c1ccccc1` [Compound 174] had a pEC50 of 6.30 to 7.30.

Regarding `C[C@@H](OC(=O)Nc1snnc1-c1ccc(-c2ccc(C3(C(=O)O)CC3)cc2)cc1)c1ccccc1Cl` [Compound 175], the pEC50 was 6.30 to 7.30.

Turning to `C[C@@H](OC(=O)Nc1nonc1-c1ccc(-c2ccc(C3(C(=O)O)CC3)cc2)cc1)c1ccccc1` [Compound 176], the negative-log EC50 (pEC50) was > 7.30.

In the case of `C[C@@H](OC(=O)Nc1nonc1-c1ccc(-c2ccc(C3(C(=O)O)CC3)cc2)cc1)c1ccccc1Cl` [Compound 177], the pEC50 was > 7.30.

Compound `Cc1noc(-c2nc3cc4oc(C5(C(=O)O)CC5)nc4cc3o2)c1NC(=O)O[C@H](C)c1ccccc1` [Compound 178] showed a negative-log EC50 (pEC50) of 6.30 to 7.30.

With `Cc1nsc(-c2cc(F)c(-c3ccc(C4(C(=O)O)CC4)cc3)cc2Cl)c1NC(=O)O[C@H](C)c1ccccc1Cl` [Compound 180], the negative-log EC50 (pEC50) was > 7.30.

`Cc1nsc(-c2cc(F)c(-c3ccc(C4(C(=O)O)CC4)cc3)cc2F)c1NC(=O)O[C@H](C)c1ccccc1Cl` [Compound 181]: the pEC50 was > 7.30.

Regarding `Cc1nsc(-c2c(F)cc(-c3ccc(C4(C(=O)O)CC4)cc3)cc2F)c1NC(=O)O[C@H](C)c1ccccc1` [Compound 183], the pEC50 is 6.30 to 7.30.

For `Cc1nsc(-c2ccc(-c3ccc(C4(C(=O)O)CC4)cc3)cc2F)c1NC(=O)O[C@H](C)c1ccccc1` [Compound 184], the negative-log EC50 (pEC50) is > 7.30.

`Cc1nsc(-c2ccc(-c3ccc(C4(C(=O)O)CC4)cc3)c(Cl)c2)c1NC(=O)O[C@H](C)c1ccccc1Cl` [Compound 186]: the pEC50 is > 7.30.

As for `Cc1nsc(-c2ccc(-c3ccc(C4(C(=O)O)CC4)cc3)cc2Cl)c1NC(=O)O[C@H](C)c1ccccc1Cl` [Compound 187], the pEC50 is > 7.30.

By pEC50 is commonly meant the negative decadic logarithm of the EC50, by convention in mol/L. Read a high pEC50 as a small EC50.

These data come from patent US8975235B2, “Lysophosphatidic acid receptor antagonists” (InterMune, Inc., priority 2011, dated 2015).
